Data on 4 molecules can be found in PubChem BioAssay (NCI).

Where “and” joins values, the source holds several entries; their conditions need not be identical. Identical values can stand only once.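 Dose response: 5 concentrations. Exposure: 48 h. Format: 96-well plates. Endpoint: linear interpolation; highest concentration if not reached. GI50: concentration for 50% inhibition of growth. At the TGI there is no net growth.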

Common to all, as to assay: inhibition of tumour cell growth, NCI panel, 48 h
The test system of test [1] is OVCAR-3 ovarian.
The test system of test [2] is OVCAR-5 ovarian.
The subject of test [3] is T-47D breast.
For test [4], the system named is HL-60(TB) leukemia.
Test [5] has as its system HCT-116 colon.
For test [6], the system named is LOX IMVI melanoma.
Test [7] relates to HOP-62 NSCLC.
For test [8], the system named is 786-0 renal.
Test [9] has as its system K-562 leukemia.
The subject of test [10] is COLO 205 colon.

Turning to `Cc1ccc(O)cc1Nc1ccnc2ccc(S(C)(=O)=O)cc12`, the GI50 in [1] is 4.82 µM; in test [2], 1.41 µM; in test [3] it was 1.59 µM; in test [4] it was 10.2 µM; in [5] it was 3.53 µM; in test [6], 0.516 µM. Moreover, the GI50 in test [7] is 2.35 µM; in test [8], 1.87 µM; in test [9], 161 nM; in [10] it was 0.47 µM. The TGI in [1] is over 22.8 µM; in [2] it was 14.5 µM; in [3], 24.3 µM; in test [4], over 25 µM; in [5], over 25 µM; in test [6], 3.89 µM. Besides, the TGI in [7] is over 25 µM; in test [8], over 25 µM; in test [9], over 25 µM; in [10], 2.83 µM.
`CC1=C(C(=O)Nc2ccccc2)C(c2ccc(N(C)C)cc2)C(C(=O)Nc2ccccc2)=C(C)N1`: the TGI in test [1] was over 100 µM; in [2], 99 µM; in test [3] it was over 93.6 µM; in test [4] it was 49.4 µM; in test [5], over 57.3 µM; in test [6] it was over 100 µM. For the same molecule, the TGI is 24.2 µM in test [7], over 100 µM in [8], over 69.1 µM in [9] and 17.3 µM in test [10].
Turning to `Cc1cc(O)c2c(c1)C(=O)C=CC2=O`, the TGI in test [1] is 10 µM and 10.2 µM; in [2] it was 43.1 µM and 34.4 µM; in test [3] it was 7.47 µM and 16.4 µM; in [4], 0.202 µM and 1.89 µM; in test [5], 10.2 µM and > 20.2 µM; in [6], 12.6 µM and > 100 µM. For the same molecule, the TGI in test [7] is 44.7 µM and 34.2 µM; in test [8] it was 12.9 µM and > 21.6 µM; in test [10], 7.97 µM and > 21.2 µM. Besides, the GI50 in [4] was 0.0336 µM and 0.31 µM; in [8], 5.8 µM and 2.59 µM; in test [9], 322 nM and 1250 nM.
Consider `COc1cc2c(N3CCN(C(=O)Nc4ccc(OC(C)C)cc4)CC3)ncnc2cc1OCCCN1CCCCC1`, for which the GI50 is 22.2 µM in test [1]; 26.8 µM in test [2]; 16.6 µM in [3]; 15.1 µM in [4]; 14 µM in test [5]; 8.15 µM in test [6]. Moreover, the GI50 in test [7] is 14.4 µM; in test [8], 17.6 µM; in test [9], 4980 nM; in test [10], 11.9 µM. In addition, the TGI in test [1] was over 59 µM; in test [2], over 90.1 µM; in test [3] it was 61.5 µM; in test [4], 36.1 µM; in test [5], 57.3 µM; in [6] it was 23.9 µM. In addition, the TGI in test [7] is 34.2 µM; in test [8], 37.8 µM; in test [9], over 100 µM; in test [10] it was 26.5 µM.
